Reference: patent publication US5652100A, “Stably transfected rodent fibroblast cell lines expressing human GABA-A -receptors” (priority 1992, dated 1997)
Where two headings read alike, the source gives them in different places.

Molecular target: T1, recombinant GABAA receptor (α1 β1 γ2L) expressed by population A cells (Bos taurus, UniProt P08219+P08220+P22300)
T1 construct: expressed in transfected cells; clone 'population A'
T1 sequence (P08219 28-456): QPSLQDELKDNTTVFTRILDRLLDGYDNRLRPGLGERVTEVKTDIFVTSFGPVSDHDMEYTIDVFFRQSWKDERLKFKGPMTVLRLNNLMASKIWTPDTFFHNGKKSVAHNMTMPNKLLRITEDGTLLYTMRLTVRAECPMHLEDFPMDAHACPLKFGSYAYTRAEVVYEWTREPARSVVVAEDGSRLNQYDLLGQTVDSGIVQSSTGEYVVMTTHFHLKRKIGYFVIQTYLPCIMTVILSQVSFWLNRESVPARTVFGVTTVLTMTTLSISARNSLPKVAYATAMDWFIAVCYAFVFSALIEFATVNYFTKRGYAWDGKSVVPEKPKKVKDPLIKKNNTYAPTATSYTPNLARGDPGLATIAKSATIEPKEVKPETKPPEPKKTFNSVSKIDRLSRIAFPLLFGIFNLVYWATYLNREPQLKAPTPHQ
T1 sequence (P08220 26-474): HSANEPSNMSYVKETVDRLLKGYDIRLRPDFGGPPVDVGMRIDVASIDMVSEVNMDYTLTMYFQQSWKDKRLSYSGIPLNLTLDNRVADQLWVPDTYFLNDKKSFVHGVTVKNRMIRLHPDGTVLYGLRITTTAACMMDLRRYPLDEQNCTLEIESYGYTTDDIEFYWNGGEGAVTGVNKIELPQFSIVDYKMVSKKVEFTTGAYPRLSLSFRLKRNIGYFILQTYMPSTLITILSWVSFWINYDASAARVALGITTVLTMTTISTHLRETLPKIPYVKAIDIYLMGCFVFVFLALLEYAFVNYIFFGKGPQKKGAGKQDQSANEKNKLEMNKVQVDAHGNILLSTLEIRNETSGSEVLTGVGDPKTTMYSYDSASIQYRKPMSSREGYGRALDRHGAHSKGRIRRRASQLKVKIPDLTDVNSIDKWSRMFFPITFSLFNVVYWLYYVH
T1 sequence (P22300 40-475): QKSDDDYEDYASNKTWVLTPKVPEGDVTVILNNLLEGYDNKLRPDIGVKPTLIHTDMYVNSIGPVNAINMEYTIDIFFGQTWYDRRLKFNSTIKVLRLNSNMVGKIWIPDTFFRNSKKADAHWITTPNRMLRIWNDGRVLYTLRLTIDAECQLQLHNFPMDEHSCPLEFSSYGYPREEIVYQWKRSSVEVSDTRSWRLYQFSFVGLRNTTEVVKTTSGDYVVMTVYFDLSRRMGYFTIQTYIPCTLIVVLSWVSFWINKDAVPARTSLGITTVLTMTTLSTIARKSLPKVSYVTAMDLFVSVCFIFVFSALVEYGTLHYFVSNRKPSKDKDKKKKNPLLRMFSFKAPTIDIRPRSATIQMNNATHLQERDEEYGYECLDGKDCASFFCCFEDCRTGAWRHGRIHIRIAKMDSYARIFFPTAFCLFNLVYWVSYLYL
Assay type: cell-based, bovine
Source text: The nature of the GABAA receptor expressed by population A cells has been extensively characterised by electrophysiological techniques, using whole cell patch clamp.

[1] = whole cell patch clamp, qualitative

Molecule	potentiation of the response to GABA [1]	antagonism of the response to GABA [1]	also measured
Cc1nnc2ccc(-c3cccc(C(F)(F)F)c3)nn12 [CL218872]			potentiation of the response to GABA: potentiated
NCCCC(=O)O [GABA, Gamma-amino butyric acid]			Hill coefficient of GABA concentration response curves (dexamethasone-induced cells, whole cell patch clamp): 1.9
CC(=O)[C@H]1CC[C@H]2[C@@H]3CC[C@H]4C[C@H](O)CC[C@]4(C)[C@H]3C(=O)C[C@]12C [alphaxalone]	potentiated		
CN1CCc2cc3c(cc2[C@H]1[C@@H]1OC(=O)c2c1ccc1c2OCO1)OCO3 [bicuculline]		antagonised	
CCCC(C)C1(CC)C(=O)NC(=O)NC1=O (stereo not drawn) [pentobarbitone]	potentiated		
picrotoxin		antagonised	
